Experimental data published in PMC4079689, “HIV Treatments Reduce Malaria Liver Stage Burden in a Non-Human Primate Model of Malaria Infection at Clinically Relevant Concentrations In Vivo” (PLoS ONE, 2014).
Where two headings read alike, the source gives them in different places.

Key:
[1] = Indian origin, rhesus monkey, in vivo, po
[2] = design: method as in Ibarra et al. Eur J Pharm Sci. 2012;46(5):516–21; settings: human historical data, LPV-RTV; ref Ibarra et al. Eur J Pharm Sci. 2012;46(5):516–21; cited from earlier work
in vivo = settings: Indian origin, rhesus monkey, po; for Cmax: 50 mg/kg
[3] = human historical data, cited from earlier work
[4] = Pharmacokinetic study, single dose by gavage, plasma HPLC-MS/MS
[5] = test system: P. knowlesi asexual blood stage parasites; design: method as in PMID 21486958; settings: rhesus macaques; cited from earlier work
[6] = TMP-SMX, ref Patel et al. 1980, Dudley et al. 1984
[7] = rhesus JMF, dosing regimen LPV-RTV+TMP-SMX, sedated
[8] = rhesus JRH, dosing regimen LPV-RTV+TMP-SMX, awake
[9] = rhesus LK8A, dosing regimen LPV-RTV alone, sedated

Cc1cccc(C)c1OCC(=O)N[C@@H](Cc1ccccc1)[C@@H](O)C[C@H](Cc1ccccc1)NC(=O)[C@H](C(C)C)N1CCCNC1=O [Lopinavir]
Cmax [1]: 10.9 µg/mL
AUC0–24 [2]: 95 µg·h/mL
Cmax [2]: 7.06 µg/mL
T1/2 [2]: 5.2 h
Tmax [2]: 3 to 6 h
AUC(0-t) (in vivo; in vivo): 171000 ng·h/mL
Cmax (in vivo; in vivo): 10300 ng/mL

COc1cc(Cc2cnc(N)nc2N)cc(OC)c1OC [Trimethoprim]
Cmax [1]: 0.13 µg/mL
AUC(0-t) (in vivo; in vivo): 1730 ng·h/mL
T1/2 [3, 6]: 8 to 10 h
Tmax [3, 6]: 1 to 4 h
AUC0–24 ([3]; dose 5 mg/kg trimethoprim and 25 mg/kg sulfamethoxazole iv, ref Dudley et al. Antimicrob Agents Chemother 1984;26:811–814): 32.6 ^2 µg*hr/mL
Cmax ([3]; dose 160 mg trimethoprim and 800 mg sulfamethoxazole, ref Patel et al. Clin Pharmacokinet 1980;5:405–423): 1–2 ^1 µg/mL

CC(C)c1nc(CN(C)C(=O)N[C@H](C(=O)N[C@@H](Cc2ccccc2)C[C@H](O)[C@H](Cc2ccccc2)NC(=O)OCc2cncs2)C(C)C)cs1 [Ritonavir]
AUC0–24 [2]: 4.31 µg·h/mL
T1/2 [2]: 5.12 h
Tmax [2]: 3 to 6 h
Cmax (in vivo; plasma): 3600 ng/mL
AUC0–24 [4, 7]: 11.1 µg·h/mL
Tmax [4, 7]: 24.0 h
AUC0–24 [4, 8]: 23.2 µg·h/mL
Tmax [4, 8]: 6.0 h
AUC0–24 [4, 9]: 37.8 µg·h/mL
Tmax [4, 9]: 8.0 h

CC(C)(C)NC(=O)[C@@H]1CN(Cc2cccnc2)CCN1C[C@@H](O)C[C@@H](Cc1ccccc1)C(=O)N[C@H]1c2ccccc2C[C@H]1O [indinavir]
Killing activity against P. knowlesi [5]: exhibited killing activity
